Assays:
Experiment in all cases: scanMAX kinase assay panel
Format in all cases: binding
ALK(C1156Y) = molecular target: T1, ALK(C1156Y) (Homo sapiens, UniProt Q9UM73, C1156Y); conditions: read-out: control percentage (% control)
T1 construct: purchased DiscoverX (scanMAX panel, contract assay)
Experimental: (§1) The activities of the compounds according to the present invention to more diverse enzymes were evaluated. Specifically, it was decided that the enzyme selectivity of Example 74 selected from the compounds of Examples 1 to 129 was measured at the request of DiscoverX, and the experiment was conducted using a scanMAX™ kinase assay panel. At this time, as a drug to treat the enzyme, a solution prepared by dissolving in DMSO at a concentration of 1 μM was used, and the control percentage (% control) was determined by the method of Equation 1 below, and the results were shown in Table 2 below.
(§2) In Equation above, the positive control and negative control mean compounds showing control percentages of 0% and 100% as DMSO, respectively.

LCK = molecular target: T2, LCK (Homo sapiens, UniProt P06239); conditions: read-out: control percentage (% control)
T2 construct: purchased DiscoverX scanMAX kinase assay panel
Experimental: as §1, §2

MARK4 = molecular target: T3, MARK4 (Homo sapiens, UniProt Q96L34); conditions: read-out: control percentage (% control)
T3 construct: purchased DiscoverX scanMAX kinase assay panel
Experimental: as §1, §2

SYK = molecular target: T4, SYK (Homo sapiens, UniProt P43405); conditions: read-out: control percentage (% control)
T4 construct: purchased DiscoverX
Experimental: as §1, §2

CLK4 = molecular target: T5, CLK4 (Homo sapiens, UniProt Q9HAZ1); conditions: read-out: control percentage (% control)
T5 construct: purchased DiscoverX (scanMAX panel, contract assay)
Experimental: as §1, §2

[1] = molecular target: T6, ABL1(T315I)-phosphoryIated (Homo sapiens, UniProt P00519, T315I); conditions: read-out: control percentage (% control)
T6 construct: purchased DiscoverX (scanMAX panel, contract assay)
Experimental: as §1, §2

PRP4 = molecular target: T7, PRP4 (Homo sapiens, UniProt Q13523); conditions: read-out: control percentage (% control)
T7 construct: purchased DiscoverX scanMAX kinase assay panel
Experimental: as §1, §2

MERTK = molecular target: T8, MERTK (Homo sapiens, UniProt Q12866); conditions: read-out: control percentage (% control)
T8 construct: purchased DiscoverX scanMAX kinase assay panel
Experimental: as §1, §2

TAK1 = molecular target: T9, TAK1 (Homo sapiens, UniProt O43318); conditions: read-out: control percentage (% control)
T9 construct: purchased DiscoverX
Experimental: as §1, §2

DYRK1B = molecular target: T10, DYRK1B (Homo sapiens, UniProt Q9Y463); conditions: read-out: control percentage (% control)
T10 construct: purchased DiscoverX scanMAX kinase assay panel
Experimental: as §1, §2

CLK2 = molecular target: T11, CLK2 (Homo sapiens, UniProt P49760); conditions: read-out: control percentage (% control)
T11 construct: purchased DiscoverX (scanMAX panel, contract assay)
Experimental: as §1, §2

[2] = molecular target: T12, JAK2(JH1domain-catalytic) (Homo sapiens, UniProt O60674); conditions: read-out: control percentage (% control)
T12 construct: JAK2(JH1 domain-catalytic); purchased DiscoverX scanMAX kinase assay panel
Experimental: as §1, §2

INSR = molecular target: T13, INSR (Homo sapiens, UniProt P06213); conditions: read-out: control percentage (% control)
T13 construct: purchased DiscoverX scanMAX kinase assay panel
Experimental: as §1, §2

FLT3(N841I) = molecular target: T14, FLT3(N841I) (Homo sapiens, UniProt P36888, N841I); conditions: read-out: control percentage (% control)
T14 construct: purchased DiscoverX scanMAX kinase assay panel
Experimental: as §1, §2

IRAK3 = molecular target: T15, IRAK3 (Homo sapiens, UniProt Q9Y616); conditions: read-out: control percentage (% control)
T15 construct: purchased DiscoverX scanMAX kinase assay panel
Experimental: as §1, §2

VRK2 = molecular target: T16, VRK2 (Homo sapiens, UniProt Q86Y07); conditions: read-out: control percentage (% control)
T16 construct: purchased DiscoverX
Experimental: as §1, §2

FLT3(ITD) = conditions: 1 μM
Experimental: as §1, §2

MUSK = molecular target: T17, MUSK (Homo sapiens, UniProt O15146); conditions: read-out: control percentage (% control)
T17 construct: purchased DiscoverX scanMAX kinase assay panel
Experimental: as §1, §2

HPK1 = molecular target: T18, HPK1 (Homo sapiens, UniProt Q92918); conditions: read-out: control percentage (% control)
T18 construct: purchased DiscoverX scanMAX kinase assay panel
Experimental: as §1, §2

JNK3 = molecular target: T19, JNK3 (Homo sapiens, UniProt P53779); conditions: read-out: control percentage (% control)
T19 construct: purchased DiscoverX scanMAX kinase assay panel
Experimental: as §1, §2

TAOK3 = molecular target: T20, TAOK3 (Homo sapiens, UniProt Q9H2K8); conditions: read-out: control percentage (% control)
T20 construct: purchased DiscoverX
Experimental: as §1, §2

RIOK3 = molecular target: T21, RIOK3 (Homo sapiens, UniProt O14730); conditions: read-out: control percentage (% control)
T21 construct: purchased DiscoverX scanMAX kinase assay panel
Experimental: as §1, §2

MEK5 = molecular target: T22, MEK5 (Homo sapiens, UniProt Q13163); conditions: read-out: control percentage (% control)
T22 construct: purchased DiscoverX scanMAX kinase assay panel
Experimental: as §1, §2

TIE1 = molecular target: T23, TIE1 (Homo sapiens, UniProt P35590); conditions: read-out: control percentage (% control)
T23 construct: purchased DiscoverX
Experimental: as §1, §2

EGFR(E746-A750del) = molecular target: T24, EGFR(E746-A750del) (Homo sapiens, UniProt P00533, DEL746-750); conditions: read-out: control percentage (% control)
T24 construct: purchased DiscoverX scanMAX kinase assay panel
Experimental: as §1, §2

EGFR = molecular target: T25, EGFR (Homo sapiens, UniProt P00533); conditions: read-out: control percentage (% control)
T25 construct: purchased DiscoverX scanMAX kinase assay panel
Experimental: as §1, §2

EGFR(T790M) = molecular target: T26, EGFR(T790M) (Homo sapiens, UniProt P00533, T790M); conditions: read-out: control percentage (% control)
T26 construct: purchased DiscoverX scanMAX kinase assay panel
Experimental: as §1, §2

RET = molecular target: T27, RET (Homo sapiens, UniProt P07949); conditions: read-out: control percentage (% control)
T27 construct: purchased DiscoverX scanMAX kinase assay panel
Experimental: as §1, §2

PAK3 = molecular target: T28, PAK3 (Homo sapiens, UniProt O75914); conditions: read-out: control percentage (% control)
T28 construct: purchased DiscoverX scanMAX kinase assay panel
Experimental: as §1, §2

[3] = molecular target: T29, JAK3(JH1domain-catalytic) (Homo sapiens, UniProt P52333); conditions: read-out: control percentage (% control)
T29 construct: JAK3(JH1domain-catalytic); purchased DiscoverX scanMAX kinase assay panel
Experimental: as §1, §2

TRKA = molecular target: T30, TRKA (Homo sapiens, UniProt P04629); conditions: read-out: control percentage (% control)
T30 construct: purchased DiscoverX
Experimental: as §1, §2

FES = molecular target: T31, FES (Homo sapiens, UniProt P07332); conditions: read-out: control percentage (% control)
T31 construct: purchased DiscoverX scanMAX kinase assay panel
Experimental: as §1, §2

EGFR(L858R, T790M) = molecular target: T32, EGFR(L858R, T790M) (Homo sapiens, UniProt P00533, L858R/T790M); conditions: read-out: control percentage (% control)
T32 construct: purchased DiscoverX scanMAX kinase assay panel
Experimental: as §1, §2

GRK4 = molecular target: T33, GRK4 (Homo sapiens, UniProt P32298); conditions: read-out: control percentage (% control)
T33 construct: purchased DiscoverX scanMAX kinase assay panel
Experimental: as §1, §2

TTK = molecular target: T34, TTK (Homo sapiens, UniProt P33981); conditions: read-out: control percentage (% control)
T34 construct: purchased DiscoverX
Experimental: as §1, §2

T5 sequence (Q9HAZ1 whole entry): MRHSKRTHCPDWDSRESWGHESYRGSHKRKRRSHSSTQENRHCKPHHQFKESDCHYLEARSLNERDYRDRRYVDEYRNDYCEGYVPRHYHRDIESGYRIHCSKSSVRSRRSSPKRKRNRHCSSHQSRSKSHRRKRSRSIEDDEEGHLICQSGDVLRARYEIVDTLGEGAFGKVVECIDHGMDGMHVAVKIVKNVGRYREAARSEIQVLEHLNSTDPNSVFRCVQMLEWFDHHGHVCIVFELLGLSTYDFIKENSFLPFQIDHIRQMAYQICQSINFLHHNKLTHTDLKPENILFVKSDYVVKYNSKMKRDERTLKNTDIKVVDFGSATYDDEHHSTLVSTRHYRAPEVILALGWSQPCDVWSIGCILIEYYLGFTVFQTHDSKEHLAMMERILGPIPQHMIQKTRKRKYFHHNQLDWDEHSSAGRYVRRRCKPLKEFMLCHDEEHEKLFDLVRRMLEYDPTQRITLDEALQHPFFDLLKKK
T31 sequence (P07332 whole entry): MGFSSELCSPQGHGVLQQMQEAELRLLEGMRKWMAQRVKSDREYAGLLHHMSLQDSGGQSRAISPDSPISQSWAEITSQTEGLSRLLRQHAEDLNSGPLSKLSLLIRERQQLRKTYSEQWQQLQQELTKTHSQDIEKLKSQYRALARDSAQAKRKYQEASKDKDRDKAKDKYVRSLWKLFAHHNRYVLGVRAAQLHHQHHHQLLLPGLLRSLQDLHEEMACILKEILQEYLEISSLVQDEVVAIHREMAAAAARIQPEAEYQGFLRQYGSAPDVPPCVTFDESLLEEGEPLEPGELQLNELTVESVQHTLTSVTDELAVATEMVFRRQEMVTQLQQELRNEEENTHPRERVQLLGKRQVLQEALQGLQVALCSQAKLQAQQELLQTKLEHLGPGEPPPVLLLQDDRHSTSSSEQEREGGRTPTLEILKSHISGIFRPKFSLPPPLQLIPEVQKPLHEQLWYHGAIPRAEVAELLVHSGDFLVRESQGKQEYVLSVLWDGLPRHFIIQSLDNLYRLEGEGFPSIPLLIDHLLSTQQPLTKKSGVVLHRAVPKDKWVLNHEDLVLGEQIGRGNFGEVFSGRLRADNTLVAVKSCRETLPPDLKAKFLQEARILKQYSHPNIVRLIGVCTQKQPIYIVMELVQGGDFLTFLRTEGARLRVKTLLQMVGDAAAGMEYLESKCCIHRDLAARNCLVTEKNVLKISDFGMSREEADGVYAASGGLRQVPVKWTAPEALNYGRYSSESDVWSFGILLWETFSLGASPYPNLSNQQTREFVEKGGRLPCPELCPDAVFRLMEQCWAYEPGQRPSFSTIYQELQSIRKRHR
T12 sequence (O60674 849-1124 limits assumed): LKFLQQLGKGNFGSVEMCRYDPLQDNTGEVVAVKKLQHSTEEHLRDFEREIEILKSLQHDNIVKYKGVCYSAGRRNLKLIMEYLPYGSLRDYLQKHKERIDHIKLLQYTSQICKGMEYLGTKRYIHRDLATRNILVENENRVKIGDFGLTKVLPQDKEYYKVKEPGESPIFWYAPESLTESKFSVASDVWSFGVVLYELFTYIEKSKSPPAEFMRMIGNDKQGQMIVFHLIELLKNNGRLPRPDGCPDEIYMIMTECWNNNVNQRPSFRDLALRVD
T16 sequence (Q86Y07 whole entry): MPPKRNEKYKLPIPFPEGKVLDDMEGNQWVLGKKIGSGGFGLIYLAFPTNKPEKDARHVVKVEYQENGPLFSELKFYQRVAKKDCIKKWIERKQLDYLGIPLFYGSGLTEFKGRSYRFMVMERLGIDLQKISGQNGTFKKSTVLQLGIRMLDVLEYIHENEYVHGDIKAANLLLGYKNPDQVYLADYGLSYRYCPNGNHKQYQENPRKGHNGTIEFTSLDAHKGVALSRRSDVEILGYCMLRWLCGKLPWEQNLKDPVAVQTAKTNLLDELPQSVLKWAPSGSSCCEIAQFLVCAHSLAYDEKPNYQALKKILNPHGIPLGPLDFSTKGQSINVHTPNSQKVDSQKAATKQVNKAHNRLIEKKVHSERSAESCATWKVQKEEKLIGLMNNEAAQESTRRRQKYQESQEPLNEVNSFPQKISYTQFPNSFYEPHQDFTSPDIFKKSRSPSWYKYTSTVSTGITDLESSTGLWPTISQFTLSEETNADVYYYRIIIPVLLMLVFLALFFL
T25 sequence (P00533 25-1210): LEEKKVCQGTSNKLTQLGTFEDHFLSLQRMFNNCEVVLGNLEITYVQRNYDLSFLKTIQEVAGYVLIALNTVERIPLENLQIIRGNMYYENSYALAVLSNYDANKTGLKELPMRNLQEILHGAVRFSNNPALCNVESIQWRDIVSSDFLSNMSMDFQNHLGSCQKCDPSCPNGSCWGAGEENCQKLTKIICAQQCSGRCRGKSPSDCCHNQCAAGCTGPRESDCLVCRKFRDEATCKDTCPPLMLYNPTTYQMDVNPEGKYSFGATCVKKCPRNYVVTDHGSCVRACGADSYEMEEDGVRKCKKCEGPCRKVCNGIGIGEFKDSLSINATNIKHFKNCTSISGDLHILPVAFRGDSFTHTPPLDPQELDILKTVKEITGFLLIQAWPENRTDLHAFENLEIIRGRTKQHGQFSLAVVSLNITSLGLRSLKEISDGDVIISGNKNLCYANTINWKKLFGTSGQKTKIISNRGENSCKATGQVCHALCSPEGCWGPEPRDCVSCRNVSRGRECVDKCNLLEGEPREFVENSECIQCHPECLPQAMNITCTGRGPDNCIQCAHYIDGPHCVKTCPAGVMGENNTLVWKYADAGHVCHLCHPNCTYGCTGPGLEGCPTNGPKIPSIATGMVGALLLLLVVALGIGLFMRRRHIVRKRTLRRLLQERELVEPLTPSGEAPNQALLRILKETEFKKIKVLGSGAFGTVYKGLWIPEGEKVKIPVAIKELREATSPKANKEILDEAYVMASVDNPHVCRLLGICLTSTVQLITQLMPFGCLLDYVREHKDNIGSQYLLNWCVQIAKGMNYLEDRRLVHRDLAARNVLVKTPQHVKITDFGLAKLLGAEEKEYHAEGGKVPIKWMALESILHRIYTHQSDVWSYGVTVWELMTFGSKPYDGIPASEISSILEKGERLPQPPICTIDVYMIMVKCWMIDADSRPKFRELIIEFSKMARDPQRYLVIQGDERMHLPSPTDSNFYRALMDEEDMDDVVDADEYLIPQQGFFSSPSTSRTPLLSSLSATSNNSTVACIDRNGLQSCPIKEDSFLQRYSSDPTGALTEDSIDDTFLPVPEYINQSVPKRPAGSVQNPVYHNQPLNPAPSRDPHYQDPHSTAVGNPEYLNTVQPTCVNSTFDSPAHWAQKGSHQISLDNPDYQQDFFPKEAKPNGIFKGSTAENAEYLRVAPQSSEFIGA
T28 sequence (O75914 whole entry): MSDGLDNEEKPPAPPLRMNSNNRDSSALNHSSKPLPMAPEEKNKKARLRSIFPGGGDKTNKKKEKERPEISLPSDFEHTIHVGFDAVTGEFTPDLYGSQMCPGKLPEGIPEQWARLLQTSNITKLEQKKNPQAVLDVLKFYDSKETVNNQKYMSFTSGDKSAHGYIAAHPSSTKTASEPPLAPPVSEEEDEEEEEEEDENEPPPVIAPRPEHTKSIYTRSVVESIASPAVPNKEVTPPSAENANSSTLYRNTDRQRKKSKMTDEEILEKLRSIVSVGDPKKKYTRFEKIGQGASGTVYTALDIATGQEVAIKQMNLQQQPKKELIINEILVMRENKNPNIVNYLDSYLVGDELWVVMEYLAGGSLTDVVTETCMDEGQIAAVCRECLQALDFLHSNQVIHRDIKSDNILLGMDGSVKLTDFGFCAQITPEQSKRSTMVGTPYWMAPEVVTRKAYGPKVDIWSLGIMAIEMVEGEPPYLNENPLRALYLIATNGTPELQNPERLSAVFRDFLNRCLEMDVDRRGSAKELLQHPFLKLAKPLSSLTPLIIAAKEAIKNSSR
T26 sequence (P00533 25-1210 T790M): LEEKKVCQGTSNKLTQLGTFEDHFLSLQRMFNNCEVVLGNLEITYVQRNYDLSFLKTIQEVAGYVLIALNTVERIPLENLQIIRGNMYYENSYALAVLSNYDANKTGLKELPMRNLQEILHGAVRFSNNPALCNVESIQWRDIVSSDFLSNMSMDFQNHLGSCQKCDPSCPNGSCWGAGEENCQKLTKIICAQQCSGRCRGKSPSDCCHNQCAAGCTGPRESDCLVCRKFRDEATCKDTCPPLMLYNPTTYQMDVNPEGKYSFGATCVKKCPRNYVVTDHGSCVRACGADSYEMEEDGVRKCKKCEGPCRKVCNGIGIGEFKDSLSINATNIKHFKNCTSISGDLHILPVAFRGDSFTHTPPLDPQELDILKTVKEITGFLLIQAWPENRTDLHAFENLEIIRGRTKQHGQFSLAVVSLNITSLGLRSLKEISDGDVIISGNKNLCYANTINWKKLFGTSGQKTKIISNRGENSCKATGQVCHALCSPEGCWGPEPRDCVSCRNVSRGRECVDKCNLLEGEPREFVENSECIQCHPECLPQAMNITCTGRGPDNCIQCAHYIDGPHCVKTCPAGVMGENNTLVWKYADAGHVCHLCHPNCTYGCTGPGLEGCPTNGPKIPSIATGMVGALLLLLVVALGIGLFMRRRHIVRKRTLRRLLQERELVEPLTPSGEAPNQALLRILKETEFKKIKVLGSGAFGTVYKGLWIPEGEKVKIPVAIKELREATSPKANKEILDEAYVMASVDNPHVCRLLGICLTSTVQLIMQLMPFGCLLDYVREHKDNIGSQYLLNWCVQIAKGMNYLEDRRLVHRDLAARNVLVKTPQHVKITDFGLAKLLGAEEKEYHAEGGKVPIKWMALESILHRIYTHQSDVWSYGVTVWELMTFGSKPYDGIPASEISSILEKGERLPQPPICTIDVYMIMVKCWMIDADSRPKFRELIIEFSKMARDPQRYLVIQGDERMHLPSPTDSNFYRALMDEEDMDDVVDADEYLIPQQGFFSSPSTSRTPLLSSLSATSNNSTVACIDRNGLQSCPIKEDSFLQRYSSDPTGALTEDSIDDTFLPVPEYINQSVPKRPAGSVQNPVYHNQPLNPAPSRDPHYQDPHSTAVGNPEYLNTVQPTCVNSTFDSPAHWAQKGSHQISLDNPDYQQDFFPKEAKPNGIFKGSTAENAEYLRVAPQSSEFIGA

Compound: CN1CCN(c2ccc(Nc3nc(N4OCC[C@H]4c4ccccc4)c4cc[nH]c4n3)cc2)CC1 [Example 74, (S)-N-(4-(4-methylpiperazin-1-yl)phenyl)-4-(3-phenylisoxazolidin-2-yl)-7H-pyrrolo[2,3-d]pyrimidin-2-amine]
- remaining binding at 1 µM (ALK(C1156Y)): 15%
- remaining binding at 1 µM (LCK): 12%
- remaining binding at 1 µM (MARK4): 18%
- remaining binding at 1 µM (SYK): 32%
- remaining binding at 1 µM (CLK4): 6.4%
- remaining binding at 1 µM [1]: 8.4%
- remaining binding at 1 µM (PRP4): 20%
- remaining binding at 1 µM (MERTK): 29%
- remaining binding at 1 µM (TAK1): 16%
- remaining binding at 1 µM (DYRK1B): 11%
- remaining binding at 1 µM (CLK2): 9.2%
- remaining binding at 1 µM [2]: 0%
- remaining binding at 1 µM (INSR): 19%
- remaining binding at 1 µM (FLT3(N841I)): 0.3%
- remaining binding at 1 µM (IRAK3): 24%
- remaining binding at 1 µM (VRK2): 33%
- control percentage (% control) (FLT3(ITD)): 0.45%
- remaining binding at 1 µM (MUSK): 0.4%
- remaining binding at 1 µM (HPK1): 0.85%
- remaining binding at 1 µM (JNK3): 4.5%
- remaining binding at 1 µM (TAOK3): 22%
- remaining binding at 1 µM (RIOK3): 3.6%
- remaining binding at 1 µM (MEK5): 26%
- remaining binding at 1 µM (TIE1): 16%
- remaining binding at 1 µM (EGFR(E746-A750del)): 0%
- remaining binding at 1 µM (EGFR): 28%
- remaining binding at 1 µM (EGFR(T790M)): 3.7%
- remaining binding at 1 µM (RET): 20%
- remaining binding at 1 µM (PAK3): 23%
- remaining binding at 1 µM [3]: 0%
- remaining binding at 1 µM (TRKA): 1.1%
- remaining binding at 1 µM (FES): 32%
- remaining binding at 1 µM (EGFR(L858R, T790M)): 17%
- remaining binding at 1 µM (GRK4): 9.3%
- remaining binding at 1 µM (TTK): 13%
